Where a SMILES comes first, the peptide text is derived from it. The star is where a group is joined. Biotin = O=C1N[C@H]2[C@H](CS[C@H]2CCCCC(=O)*)N1
Experiments:
various growth factors = test: Further binding studies: preference of binding for various growth factors; conditions: latter 3 growth factors: no detectable binding
Procedure: Since GDFs are also considered as members of the BMP family of proteins, and therefore share significant amino acid sequence homology, some binding cross-reactivity of peptides according to the presently disclosed subject matter with BMP-5 was noted. […] Further binding studies were performed from which was determined the preference of binding of peptides according to the presently disclosed subject matter for various growth factors. […] Thus peptides according to the presently disclosed subject matter show preferential binding to GDF-7, and show binding affinity for fibrous connective tissue-inducing growth factors.

[1] = Binding of surface-binding peptide to suture material; conditions: braided polyethylene terephthalate fibers
Description: To illustrate this embodiment, a linker was used to couple a peptide having binding affinity for a surface of an implant with a peptide having binding affinity for fibrous connective tissue-inducing growth factor. […] Similarly, peptides having amino acid sequences of SEQ ID NOs: 1-3 were used individually as representative peptides having binding affinity for fibrous connective tissue-inducing growth factor, and for inclusion as a component in a composition according to the presently disclosed subject matter.

GDF-7 = biological target: T1, GDF-7 (Mus musculus, UniProt P43029); test: GDF-7 binding by composition immobilized on polyethylene terephthalate suture; conditions: 0.5 μM of the conjugate, relative to assay background
T1 construct: purchased R&D SYSTEMS
T1 sequence (P43029 316-461): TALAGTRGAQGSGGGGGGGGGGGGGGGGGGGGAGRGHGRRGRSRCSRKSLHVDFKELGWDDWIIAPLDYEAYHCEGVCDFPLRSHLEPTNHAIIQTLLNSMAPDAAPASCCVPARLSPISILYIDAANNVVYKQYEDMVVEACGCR
Description: Using standard methods for peptide synthesis, amino acid sequences comprising SEQ ID NO:1-3 and SEQ ID NO: 67 were synthesized to contain an amino acid linker sequence (e.g., GSSGK, SEQ ID NO:72) at the C-terminus to which was linked biotin (via the lysine residue). See, for example, SEQ ID NOs: 73-76. Streptavidin (having 4 biotin binding sites) was used in conjunction with the biotin on the biotinylated peptides to form a linker between the two different peptide components. […]
Each of the three representative compositions according to the presently disclosed subject matter or the control conjugate were added individually to respective wells containing a suture and containing GDF-7 in various concentrations (starting at 100 nM final concentration for the compositions; 0.5 μM of the conjugate) with high salt buffer-T, and incubated for 1 hour at room temperature. […] It was determined in these experiments that maximal growth factor binding to the composition occurs within the first several minutes (e.g., within a time period ranging from 5 to 10 minutes), and that no additional GDF-7 appears to be retained to the surface of the implant in a time period of up to 1 hour of contact with the implant.

| Molecule | preference for binding affinity (from highest relative binding affinity to lowest) (various growth factors) | also measured |
| --- | --- | --- |
| CC[C@H](C)[C@H](NC(=O)[C@H](CCC(=O)O)NC(=O)[C@H](CCCNC(=N)N)NC(=O)[C@@H]1CCCN1C(=O)CNC(=O)[C@H](CO)NC(=O)[C@@H](N)CO)C(=O)N[C@@H](Cc1c[nH]c2ccccc12)C(=O)N[C@@H](CC(=O)O)C(=O)N[C@@H](CO)C(=O)N[C@@H](CC(C)C)C(=O)N[C@H](C(=O)NCC(=O)N[C@H](C(=O)N[C@H](C(=O)N[C@@H](CC(N)=O)C(=O)N1CCC[C@H]1C(=O)NCC(=O)N[C@@H](Cc1c[nH]c2ccccc12)C(=O)N[C@@H](CO)C(=O)N[C@@H](CCCNC(=N)N)C(=O)NCC(=O)N[C@@H](CO)C(=O)N[C@@H](CO)C(=O)NCC(=O)N[C@@H](CCCCNC(=O)CCCC[C@@H]1SC[C@@H]2NC(=O)N[C@@H]21)C(N)=O)C(C)C)C(C)C)C(C)C [SEQ ID NO: 1, ssGPREIWDSLVGVVNPGWsr] (H-SSGPREIWDSLVGVVNPGWSRGSSGK(Biotin)-NH2; N-terminus and C-terminus assumed) | GDF-7>GDF-5, BMP-2>BMP-6>BMP-5>TGF-β1, TGF-β3, or PDGF-BB |  |
| CC(C)C[C@H](NC(=O)[C@H](C)NC(=O)[C@H](Cc1c[nH]c2ccccc12)NC(=O)CNC(=O)CNC(=O)[C@@H](NC(=O)CNC(=O)CNC(=O)[C@H](CO)NC(=O)[C@@H](N)CO)C(C)C)C(=O)N[C@@H](Cc1ccccc1)C(=O)N[C@@H](CCC(=O)O)C(=O)N[C@H](C(=O)N[C@@H](CC(C)C)C(=O)N[C@@H](CCCNC(=N)N)C(=O)NCC(=O)N[C@@H](CCCCN)C(=O)N[C@@H](CCC(=O)O)C(=O)N[C@H](C(=O)N[C@@H](CO)C(=O)N[C@@H](CCCNC(=N)N)C(=O)NCC(=O)N[C@@H](CO)C(=O)N[C@@H](CO)C(=O)NCC(=O)N[C@@H](CCCCNC(=O)CCCC[C@@H]1SC[C@@H]2NC(=O)N[C@@H]21)C(N)=O)C(C)C)[C@@H](C)O [SEQ ID NO: 2, ssGGVGGWALFETLRGKEVsr] (H-SSGGVGGWALFETLRGKEVSRGSSGK(Biotin)-NH2; N-terminus and C-terminus assumed) | GDF-7>GDF-5, BMP-2, and BMP-6>BMP-5>TGF-β1, TGF-β3, or PDGF-BB |  |
| CSCC[C@H](NC(=O)CNC(=O)[C@H](CCC(=O)O)NC(=O)[C@H](Cc1c[nH]c2ccccc12)NC(=O)[C@H](CO)NC(=O)[C@H](CCCNC(=N)N)NC(=O)[C@H](CC(C)C)NC(=O)[C@H](C)NC(=O)[C@H](Cc1c[nH]c2ccccc12)NC(=O)[C@H](CCC(=O)O)NC(=O)[C@H](C)NC(=O)[C@@H](NC(=O)[C@H](CO)NC(=O)[C@@H](N)CO)C(C)C)C(=O)N[C@@H](CCCNC(=N)N)C(=O)N[C@H](C(=O)NCC(=O)N[C@@H](CCC(=O)O)C(=O)N[C@@H](C)C(=O)N[C@@H](CO)C(=O)N[C@@H](CCCNC(=N)N)C(=O)NCC(=O)N[C@@H](CO)C(=O)N[C@@H](CO)C(=O)NCC(=O)N[C@@H](CCCCNC(=O)CCCC[C@@H]1SC[C@@H]2NC(=O)N[C@@H]21)C(N)=O)C(C)C [SEQ ID NO: 3, ssVAEWALRSWEGMRVGEAsr] (H-SSVAEWALRSWEGMRVGEASRGSSGK(Biotin)-NH2; N-terminus and C-terminus assumed) | GDF-7>GDF-5, BMP-2>BMP-6>BMP-5>TGF-β1, TGF-β3, or PDGF-BB |  |
| SWWGFWNGSAAPVWSR [SEQ ID NO: 67] |  | binding affinity for suture material [1]: showed binding affinity |
| peptide conjugate: negative control: biotinylated surface-binding peptide bound to streptavidin, without peptide having binding affinity for growth factor |  | binding for GDF-7 on suture (GDF-7): no appreciable binding |

Reference: patent publication US8067021B2, “Methods and compositions for delivery of growth factor to fibrous connective tissue” (Affinergy, Inc., priority 2007, dated 2011)
